From the supplement of paper PMC10307832

How the values were obtained:
Test in all cases: relative viability (nuclei count vs DMSO), 5 days (fraction); higher = more cells survive
[1] = compound: NC(=O)[C@@H](CCC(F)(F)F)N(Cc1ccc(-c2ncon2)cc1F)S(=O)(=O)c1ccc(Cl)cc1 [Avagacestat] + COc1cccc2cc(-c3nc([C@H]4CC[C@H](C(=O)O)CC4)n4ncnc(N)c34)[nH]c12 [OSI-027] (partner 0.5 µM)
In short: (§1)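 Lung cancer cell lines were pin-tool dosed in 1536-well plates on the day after seeding, with either a lone drug or a fixed anchor-drug dose plus five library-drug doses (not always all listed) in √10 steps. Nuclei were counted on 4× images after 5 days. Relative viability is the ratio of treated-well to vehicle-well nuclei counts, with each value a median of duplicate plates.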

[2] = compound: NC(=O)[C@@H](CCC(F)(F)F)N(Cc1ccc(-c2ncon2)cc1F)S(=O)(=O)c1ccc(Cl)cc1 [Avagacestat] + CS(=O)(=O)CCNCc1ccc(-c2ccc3ncnc(Nc4ccc(OCc5cccc(F)c5)c(Cl)c4)c3c2)o1 [Lapatinib] (partner 2 µM)
In short: as §1

[3] = compound: NC(=O)[C@@H](CCC(F)(F)F)N(Cc1ccc(-c2ncon2)cc1F)S(=O)(=O)c1ccc(Cl)cc1 [Avagacestat] + C[C@]1(O)C[C@@H](c2nc(-c3ccc4ccc(-c5ccccc5)nc4c3)c3c(N)nccn32)C1 [Linsitinib] (partner 1 µM)
In short: as §1

[4] = compound: NC(=O)[C@@H](CCC(F)(F)F)N(Cc1ccc(-c2ncon2)cc1F)S(=O)(=O)c1ccc(Cl)cc1 [Avagacestat] + Cc1nc(NC(=O)N2CCC[C@H]2C(N)=O)sc1-c1ccnc(C(C)(C)C(F)(F)F)c1 [Alpelisib] (partner 2 µM)
In short: as §1

Cell Line NCI-H1975 has a relative viability ([1]; first compound 0.08 µM) of 0.874, a relative viability ([1]; first compound 0.253 µM) of 0.709 and a relative viability ([1]; first compound 0.8 µM) of 0.873. The relative viability ([1]; first compound 2.53 µM) was 0.582, the relative viability ([1]; first compound 8 µM) was 0.603 and the relative viability ([2]; first compound 0.08 µM) was 0.852. It also gave a relative viability ([2]; first compound 0.253 µM) of 1.1, a relative viability ([2]; first compound 0.8 µM) of 1.03 and a relative viability ([2]; first compound 2.53 µM) of 0.935. For the same cell line, the relative viability ([2]; first compound 8 µM) was 0.859, the relative viability ([3]; first compound 0.08 µM) was 1.14 and the relative viability ([3]; first compound 0.253 µM) was 1.19. For the same cell line, the relative viability ([3]; first compound 0.8 µM) was 1.04, the relative viability ([3]; first compound 2.53 µM) was 0.943 and the relative viability ([3]; first compound 8 µM) was 0.994. It also gave a relative viability ([4]; first compound 0.08 µM) of 0.686, a relative viability ([4]; first compound 0.253 µM) of 0.62 and a relative viability ([4]; first compound 0.8 µM) of 0.719. The relative viability ([4]; first compound 2.53 µM) was 0.585 and the relative viability ([4]; first compound 8 µM) was 0.665.

NCI-H1993 gave a relative viability ([1]; first compound 0.08 µM) of 0.583, a relative viability ([1]; first compound 0.253 µM) of 0.548 and a relative viability ([1]; first compound 0.8 µM) of 0.536. The relative viability ([1]; first compound 2.53 µM) was 0.524, the relative viability ([1]; first compound 8 µM) was 0.521 and the relative viability ([2]; first compound 0.08 µM) was 0.956. It also gave a relative viability ([2]; first compound 0.253 µM) of 0.659, a relative viability ([2]; first compound 0.8 µM) of 0.738 and a relative viability ([2]; first compound 2.53 µM) of 0.731. It also gave a relative viability ([2]; first compound 8 µM) of 0.674, a relative viability ([3]; first compound 0.08 µM) of 0.754 and a relative viability ([3]; first compound 0.253 µM) of 0.746. The relative viability ([3]; first compound 0.8 µM) was 0.765, the relative viability ([3]; first compound 2.53 µM) was 0.773 and the relative viability ([3]; first compound 8 µM) was 0.749. It also gave a relative viability ([4]; first compound 0.08 µM) of 0.756, a relative viability ([4]; first compound 0.253 µM) of 0.691 and a relative viability ([4]; first compound 0.8 µM) of 0.693. It also gave a relative viability ([4]; first compound 2.53 µM) of 0.752 and a relative viability ([4]; first compound 8 µM) of 0.727.

In the case of NCI-H2009, the relative viability ([1]; first compound 0.08 µM) is reported as 0.708, the relative viability ([1]; first compound 0.253 µM) is reported as 0.749 and the relative viability ([1]; first compound 0.8 µM) is reported as 0.662. For the same cell line, the relative viability ([1]; first compound 2.53 µM) was 0.579, the relative viability ([1]; first compound 8 µM) was 0.563 and the relative viability ([2]; first compound 0.08 µM) was 0.963. It also gave a relative viability ([2]; first compound 0.253 µM) of 0.995, a relative viability ([2]; first compound 0.8 µM) of 0.857 and a relative viability ([2]; first compound 2.53 µM) of 0.993. For the same cell line, the relative viability ([2]; first compound 8 µM) was 0.814, the relative viability ([3]; first compound 0.08 µM) was 1.26 and the relative viability ([3]; first compound 0.253 µM) was 1.34. For the same cell line, the relative viability ([3]; first compound 0.8 µM) was 1.2, the relative viability ([3]; first compound 2.53 µM) was 1.22 and the relative viability ([3]; first compound 8 µM) was 1.1. It also gave a relative viability ([4]; first compound 0.08 µM) of 1.28, a relative viability ([4]; first compound 0.253 µM) of 1.29 and a relative viability ([4]; first compound 0.8 µM) of 1.16. For the same cell line, the relative viability ([4]; first compound 2.53 µM) was 1.18 and the relative viability ([4]; first compound 8 µM) was 1.08.

With NCI-H2023 the relative viability ([1]; first compound 0.08 µM) was 0.471, the relative viability ([1]; first compound 0.253 µM) was 0.466 and the relative viability ([1]; first compound 0.8 µM) was 0.505. The relative viability ([1]; first compound 2.53 µM) was 0.344, the relative viability ([1]; first compound 8 µM) was 0.302 and the relative viability ([2]; first compound 0.08 µM) was 0.979. The relative viability ([2]; first compound 0.253 µM) was 0.89, the relative viability ([2]; first compound 0.8 µM) was 0.822 and the relative viability ([2]; first compound 2.53 µM) was 0.617. The relative viability ([2]; first compound 8 µM) was 0.7, the relative viability ([3]; first compound 0.08 µM) was 0.789 and the relative viability ([3]; first compound 0.253 µM) was 0.784. It also gave a relative viability ([3]; first compound 0.8 µM) of 0.628, a relative viability ([3]; first compound 2.53 µM) of 0.606 and a relative viability ([3]; first compound 8 µM) of 0.47. For the same cell line, the relative viability ([4]; first compound 0.08 µM) was 0.659, the relative viability ([4]; first compound 0.253 µM) was 0.781 and the relative viability ([4]; first compound 0.8 µM) was 0.536. For the same cell line, the relative viability ([4]; first compound 2.53 µM) was 0.562 and the relative viability ([4]; first compound 8 µM) was 0.536.

In the case of NCI-H2085, the relative viability ([1]; first compound 0.08 µM) is reported as 0.928, the relative viability ([1]; first compound 0.253 µM) is reported as 0.837 and the relative viability ([1]; first compound 0.8 µM) is reported as 0.898. For the same cell line, the relative viability ([1]; first compound 2.53 µM) was 0.742, the relative viability ([1]; first compound 8 µM) was 0.897 and the relative viability ([2]; first compound 0.08 µM) was 0.805. It also gave a relative viability ([2]; first compound 0.253 µM) of 0.939, a relative viability ([2]; first compound 0.8 µM) of 0.912 and a relative viability ([2]; first compound 2.53 µM) of 0.728. For the same cell line, the relative viability ([2]; first compound 8 µM) was 0.811, the relative viability ([3]; first compound 0.08 µM) was 0.913 and the relative viability ([3]; first compound 0.253 µM) was 0.967. For the same cell line, the relative viability ([3]; first compound 0.8 µM) was 1.08, the relative viability ([3]; first compound 2.53 µM) was 0.922 and the relative viability ([3]; first compound 8 µM) was 0.84. The relative viability ([4]; first compound 0.08 µM) was 1.15, the relative viability ([4]; first compound 0.253 µM) was 1.07 and the relative viability ([4]; first compound 0.8 µM) was 1.08. It also gave a relative viability ([4]; first compound 2.53 µM) of 1 and a relative viability ([4]; first compound 8 µM) of 1.05.

NCI-H2087 showed a relative viability ([1]; first compound 0.08 µM) of 0.631, a relative viability ([1]; first compound 0.253 µM) of 0.617 and a relative viability ([1]; first compound 0.8 µM) of 0.63. The relative viability ([1]; first compound 2.53 µM) was 0.54, the relative viability ([1]; first compound 8 µM) was 0.575 and the relative viability ([2]; first compound 0.08 µM) was 1.33. It also gave a relative viability ([2]; first compound 0.253 µM) of 1.04, a relative viability ([2]; first compound 0.8 µM) of 1.05 and a relative viability ([2]; first compound 2.53 µM) of 1.25. It also gave a relative viability ([2]; first compound 8 µM) of 1.06, a relative viability ([3]; first compound 0.08 µM) of 1.2 and a relative viability ([3]; first compound 0.253 µM) of 1.2. The relative viability ([3]; first compound 0.8 µM) was 1.03, the relative viability ([3]; first compound 2.53 µM) was 1.2 and the relative viability ([3]; first compound 8 µM) was 1.02. The relative viability ([4]; first compound 0.08 µM) was 1.12, the relative viability ([4]; first compound 0.253 µM) was 1.26 and the relative viability ([4]; first compound 0.8 µM) was 1.28. For the same cell line, the relative viability ([4]; first compound 2.53 µM) was 1.18 and the relative viability ([4]; first compound 8 µM) was 1.03.

In the case of NCI-H2126, the relative viability ([1]; first compound 0.08 µM) is reported as 0.847, the relative viability ([1]; first compound 0.253 µM) is reported as 0.721 and the relative viability ([1]; first compound 0.8 µM) is reported as 0.703. For the same cell line, the relative viability ([1]; first compound 2.53 µM) was 0.616, the relative viability ([1]; first compound 8 µM) was 0.669 and the relative viability ([2]; first compound 0.08 µM) was 0.767. The relative viability ([2]; first compound 0.253 µM) was 0.837, the relative viability ([2]; first compound 0.8 µM) was 0.805 and the relative viability ([2]; first compound 2.53 µM) was 0.722. It also gave a relative viability ([2]; first compound 8 µM) of 0.657, a relative viability ([3]; first compound 0.08 µM) of 0.757 and a relative viability ([3]; first compound 0.253 µM) of 0.705. The relative viability ([3]; first compound 0.8 µM) was 0.696, the relative viability ([3]; first compound 2.53 µM) was 0.706 and the relative viability ([3]; first compound 8 µM) was 0.67. For the same cell line, the relative viability ([4]; first compound 0.08 µM) was 0.737, the relative viability ([4]; first compound 0.253 µM) was 0.743 and the relative viability ([4]; first compound 0.8 µM) was 0.747. It also gave a relative viability ([4]; first compound 2.53 µM) of 0.734 and a relative viability ([4]; first compound 8 µM) of 0.68.

With NCI-H2228 the relative viability ([1]; first compound 0.08 µM) was 0.849, the relative viability ([1]; first compound 0.253 µM) was 0.455 and the relative viability ([1]; first compound 0.8 µM) was 0.57. For the same cell line, the relative viability ([1]; first compound 2.53 µM) was 0.503, the relative viability ([1]; first compound 8 µM) was 0.504 and the relative viability ([2]; first compound 0.08 µM) was 1.33. For the same cell line, the relative viability ([2]; first compound 0.253 µM) was 0.875, the relative viability ([2]; first compound 0.8 µM) was 1.52 and the relative viability ([2]; first compound 2.53 µM) was 1.13. The relative viability ([2]; first compound 8 µM) was 0.718, the relative viability ([3]; first compound 0.08 µM) was 1.04 and the relative viability ([3]; first compound 0.253 µM) was 0.765. For the same cell line, the relative viability ([3]; first compound 0.8 µM) was 0.786, the relative viability ([3]; first compound 2.53 µM) was 0.62 and the relative viability ([3]; first compound 8 µM) was 0.534. For the same cell line, the relative viability ([4]; first compound 0.08 µM) was 0.842, the relative viability ([4]; first compound 0.253 µM) was 0.619 and the relative viability ([4]; first compound 0.8 µM) was 0.773. It also gave a relative viability ([4]; first compound 2.53 µM) of 0.567 and a relative viability ([4]; first compound 8 µM) of 0.698.
